# Measurements reported in US20070009571A1, “Novel haptotactic peptides” (Hadasit Medical Research Services & Development Ltd., priority 1998, published 2007).
# “Also recorded” adds a separate entry of the source. Like-named read-outs stand apart in the source and are kept apart here. Marks after values point to notes of the source that are not given here. No end group written: not given here.
# Tests used:
# EC cells (BAEC) = test: FACS analysis of binding of FITC-labeled peptides; type: cell-based, bovine; conditions: 10 μg/ml or 100 μg/ml, medium with 0.1% albumin
# Method: EC and HF cell monolayers were washed and then incubated with trypsin-versene. Cells were then washed with growth medium and resuspended in medium with 0.1% albumin. FITC-labeled peptide-Cβ (SEQ ID NO:1) was incubated with 5×10^5 EC cells (10 μg/ml or 100 μg/ml) or with 2.5×10^5 HF cells (100 μg/ml) in medium with 0.1% albumin. FITC-labeled peptide-CαE (SEQ ID NO:3) and Cα (SEQ ID NO:4) (10 μg/ml) was incubated with 5×10^5 EC cells in medium with 0.1% albumin. Cells were then washed with PBS and 1% albumin. Cells were resuspended in PBS and 1% albumin and then filtered through a mesh for FACS analysis, in which the FITC tluorescence was measured for each cell.
# The control is without FITC-labeled peptide (background fluorescence).
# In competition experiments, cells were incubated with various concentrations of unlabeled Cβ (SEQ ID NO:1) for 15 mins, an aliquot of Cβ^FITC (4 mM) was added and the sample was subjected to FACS analysis. […] The Cβ^FITC (SEQ ID NO:1) uptake experiments best fitted a linear-quadratic curve-fit.
# BAEC = test: Chemotaxis, micro-Boyden chamber assay; type: cell-based, bovine
# Method: Chemotaxis was evaluated using 48-well plastic Microtaxis micro-Boyden chambers. Polycarbonate filters with pore size of 8 μm were coated with fibronectin for 2 hours at 37° C. Conditioned medium from 3T3 cells served as a positive control. Test solution (26 μl) containing the tested peptides or protein or medium with no additions that served as control were placed in the lower chamber, covered with the filter. 50 μl cell suspension was introduced to the upper chamber of each well. The number of cells/well varied in the range of 5,000-10,000 in different experiments. The device loaded with cells was incubated at 37° C. for 4-5 hours. The filter was then removed and the non-migrating cells on its upper part were carefully wiped off with a damp cotton swab. The filter was fixed in methanol and stained with Accustain (modified Wright stain solution Sigma Diagnostics: St. Lois, Mo.). Cells that crossed or were retained within the filter were counted microscopically at low magnification so that the viewing field corresponded to the whole area of each well. Each experimental variant was performed in duplicated or triplicates and the data from, three successful experiments were normalized to the values of the positive control and averaged.
# The chemotactic response of BAEC to a soluble gradient of […], the most haptotactic of the peptides studied was as follows. The results can be seen in FIG. 6. […] A similar, though more moderate, chemotaxis response to Cβ (SEQ ID NO:1) was obtained with HF.
# tested cell lines = test: Haptotaxis assay, statements over the tested cell lines; type: cell-based; conditions: ligands covalently bound to SB; for haptotactic response / cell binding to SB-ligand, in words: near confluent cell cultures
# Method: (§1) Peptides or fibrinogen were covalently bound to CNBr activated sepharose beads (SB) (Pharmacia, Piscataway, N.J.) using techniques previously used to bind albumin, fibrinogen and thrombin. Briefly, CNBr-activated sepharose 4B (Pharmacia) was washed with 1N HCl, and suspended in the coupling buffer (pH 8.3), following the protocol supplied by the manufacturer. The peptides were dialyzed against the coupling buffer to remove Tris. Peptides (1 mg) were not highly water soluble. The peptides were dissolved in 1 mL 70% ethanol or dimethylformamide, and were then mixed into the coupling buffer containing 1 mL CNBr-activated sepharose. The suspension was gently agitated overnight, then centrifuged 500×g to pack the beads. This procedure covalently binds more than 95% of proteins or peptides including fibrinogen or peptides-CαE (SEQ ID NO:3), Cβ (SEQ ID NO:1) and preCγ (SEQ ID NO:2) to the beads determined by Abs280 readings of the solutions.
# (§2) The migratory/adhesion response of cells to proteins (such as fibrinogen) or peptides covalently bound to SB was measured as follows. Cells were grown in 6 or 12 well plates to near confluence or in suspension until they covered about ½ to ⅔ of the plate surface. At that point, about […] of a suspension containing 50% v/v SB coated with the test protein or peptide were added to the plate and dispersed by gentle shaking for 1 min. The plate was then returned to the incubator and examined at different times by inverted phase microscopy.
# (§3) The SB (naked or ligand bound) sedimented onto the nearly confluent cell layer and occasionally made physical contact with cell membranes on the plate (ascribed to Brownian motion or micro-convection currents). […] Typically, 300 beads (but not less then 200) were counted in each well and the ratio of SB bound to the cells relative to total number SB could be calculated (SB bound/SB total). Counting the percentage of SB attached to the cell surface at different time intervals provided a quantitative assay of the kinetics of the attachment of coated beads to cells. Negative control with uncoated SB or positive controls with SB-fibrinogen were employed with at least 3 wells measured for each. The statistical error was calculated from the square root of the total counts.
# (§4) The peptides of the present invention were synthesized and tested in cell culture systems as described above. Essentially, peptides were covalently attached to sepharose beads to form SB-Cα (SEQ ID NO:4), SB-Cβ (SEQ ID NO:1), SB-PreCγ (SEQ ID NO:2), SB-Cγ (SEQ ID NO:5) and SB-CαE (SEQ ID NO:3), respectively, as was fibrinogen to form SB-Fib. The SB-peptide combination was then incubated with cultured cells. […] The haptotactic potency of the peptides is summarized in Table 3 with the percentage of SB-Fib/peptide attached to cells (by day 4) given in columns 2-5 of Table 3.
# HF = test: Cell proliferation, MTS assay; type: cell-based, human; conditions: 0.4 nM-4 μM, 96 well plates
# Method: Cell proliferation was evaluated by measuring cell density as a function of time by two different colorimetric assays. The MTS colorimetric assay (CellTitre 96 Aqueous Assay by Promega) is based on dehydrogenase conversion of MTS (methyl tetrazolium salt) by viable cells to […] (Ge M. Tang, G., Ryan. T. J. and Malik. A. B., “Fibrinogen degradation product fragment D induces endothelial cell detachment by activation of cell-mediated fibrinolysis”, J. Clin. Inves., 90:2508-2516 (1992)); the methylene blue (MB) assay is based on the staining of monolayer cells after their fixation, and reading the absorbence of the absorbed dye.
# The MTS assay for viable cells was performed as follows: 30 μL of freshly prepared MTS/PMS were added to each well; following 2 hrs incubation at 37° C., the plates were placed on a computer driven microplate reader (Anthos HT-II, Salzburg, Austria), programmed to shake the plate for 1 minute before reading the optical density (OD) of the dye at 490 nm. The measurements were repeated following 4 and 6 hours of incubation.
# Peptides (Cα (SEQ ID NO:4), […], PreCγ (SEQ ID NO:2) and CαE (SEQ ID NO:3)), up to 1 μg/mL or 100 μg/mL fibrinogen or thrombin (final concentrations) were added to the culture medium and cell numbers were assayed by day 3 using the MTS assay. The change in cell number was compared with that observed versus saline control. Of the 5 peptides tested at dosages up to 10 μg/mL (approximately equimolar to 1 μg/mL fibrinogen), none of the peptides exerted significant effect on cell proliferation (FIG. 7).
# [1] = tested on: bovine aortic endothelial cells (EC, BAEC); test: Haptotaxis assay: attachment of ligand-coated SB to cultured cells; type: cell-based; conditions: for % Binding of peptide-coated SB to normal cultured cells: percentage of SB-ligand attached to cells by day 4
# Method: as §1, §2, §3, §4
# [2] = tested on: normal human skin fibroblasts (HF); test: Haptotaxis assay: attachment of ligand-coated sepharose beads (SB) to cultured cells; type: cell-based; conditions: for % Binding of peptide-coated SB to normal cultured cells: percentage of SB-ligand attached to cells by day 4
# Method: as §1, §2, §3, §4
# [3] = tested on: murine mammary adenocarcinoma cells (EMT-6); test: Haptotaxis assay: attachment of ligand-coated SB to cultured cells; type: cell-based; conditions: percentage of SB-ligand attached to cells by day 4
# Method: as §1, §2, §3, §4
# [4] = tested on: porcine smooth muscle cells (SMC); test: as above; type: cell-based; conditions: for % Binding of peptide-coated SB to normal cultured cells: percentage of SB-ligand attached to cells by day 4
# Method: as §1, §2, §3, §4
# [5] = tested on: normal murine fibroblasts (MF); test: as above; type: cell-based; conditions: percentage of SB-ligand attached to cells by day 4
# Method: as §1, §2, §3, §4
# [6] = tested on: human ovarian carcinoma cells (OV-1063); test: as above; type: cell-based; conditions: percentage of SB-ligand attached to cells by day 4
# Method: as §1, §2, §3, §4
substance,measurement,setting,value
"EADHEGTHSTKRGHAKSRP (Equivalent to the c-terminus of fibrinogen alpha-chain) [Cα, reference compound]","binding/uptake of FITC-labeled peptide by FACS, in words",EC cells (BAEC),did not bind
same,"chemotactic response of BAEC, in words","BAEC; soluble gradient, up to 40 μg/ml, conditioned medium = 100% chemotaxis",elicited no response
same,"haptotactic response / cell binding to SB-ligand, in words",tested cell lines,inactive
same,"haptotactic response / cell binding to SB-ligand, in words",tested cell lines; listed as peptide-Cα,no cell adhesive effects
same,proliferative response of HF (MTS proliferation assay),HF,none of these peptides stimulated or inhibited proliferation
"FITC-labeled peptide Cα: FITC-labeled peptide Cα (SEQ ID NO:4), negative control (EADHEGTHSTKRGHAKSRP; not fully specified (N-terminus); also: FITC label, position not given here) [reference compound]","binding/uptake of FITC-labeled peptide by FACS, in words",EC cells (BAEC),bound only slightly (non-specifically)
"FITC-labeled peptide Cγ: FITC-labeled peptide Cγ (SEQ ID NO:5) (LTIGEGQQHHLGGAKQAGDV; not fully specified (N-terminus); also: FITC label, position not given here) [reference compound]","binding/uptake of FITC-labeled peptide by FACS, in words",EC cells (BAEC),bound only slightly (non-specifically)
KTRWYSMKKTTMKIIPFNRL (Equivalent to an internal sequence of fibrinogen gamma-chain) [PreCγ],"chemotaxis, in words",BAEC; concentrations of up to 40 μM,significant chemotaxis
same,"haptotactic response / cell binding to SB-ligand, in words",tested cell lines,significant haptotactic responses
same,"haptotactic response / cell binding to SB-ligand, in words",tested cell lines; listed as preCγ,highly haptotactic; also recorded: most potent
same,"cell binding / haptotactic response to SB-ligand, in words",[1],greatest haptotactic response
same,proliferative response of HF (MTS proliferation assay),HF,none of these peptides stimulated or inhibited proliferation
"LTIGEGQQHHLGGAKQAGDV (Equivalent to the c-terminus of fibrinogen gamma-chain) [Cγ, control peptide homologous to the C-terminus of the fibrinogen γ chain, γ 392-411, reference compound]","haptotactic response / cell binding to SB-ligand, in words",tested cell lines,minor negligible activity
same,"cell binding / haptotactic response to SB-ligand, in words",[1],only negligible effect
same,"cell binding / haptotactic response to SB-ligand, in words",[1]; listed as peptide Cγ,bound variably
same,proliferative response of HF (MTS proliferation assay),HF,none of these peptides stimulated or inhibited proliferation
"RGADYSLRAVRMKIRPLVTQ (Equivalent to the c-erminus of fibrinogen alpha-E-chain) [CαE, haptotactic peptide homologous to the C-terminus of the fibrinogen αE chain, αE 828-847]","haptotactic response / cell binding to SB-ligand, in words",tested cell lines,to a lesser degree; also recorded: significant haptotactic responses
same,proliferative response of HF (MTS proliferation assay),HF,none of these peptides stimulated or inhibited proliferation
SB-Cγ: peptide Cγ (SEQ ID NO:5) covalently attached to sepharose beads (LTIGEGQQHHLGGAKQAGDV; also: attached to sepharose beads) [reference compound],% Binding of peptide-coated SB to normal cultured cells,[2],2%
same,"cell binding / haptotactic response to SB-ligand, in words",[1],Variable haptotaxis
same,% Binding of peptide-coated SB to normal cultured cells,[1],2 to 93* %
same,% Binding of peptide-coated SB to normal cultured cells,[3],2%
same,% Binding of peptide-coated SB to normal cultured cells,[4],1%
same,% Binding of peptide-coated SB to normal cultured cells,[5],0%
same,% Binding of peptide-coated SB to normal cultured cells,[6],0%
SB-PreCγ: peptide preCγ (SEQ ID NO:2) covalently attached to sepharose beads (KTRWYSMKKTTMKIIPFNRL; also: attached to sepharose beads),cell lines excepted from binding to SB-ligand (all other tested lines bound),tested cell lines,"with the exception of OV-1063, keratinocytes and cells derived from a leucocytic lineage"
same,"cell binding to SB-ligand, in words",[2],bound
same,% Binding of peptide-coated SB to normal cultured cells,[2],100%
same,"cell binding / haptotactic response to SB-ligand, in words",[1],bound
same,% Binding of peptide-coated SB to normal cultured cells,[1],100%
same,"cell binding to SB-ligand, in words",[4],bound
same,% Binding of peptide-coated SB to normal cultured cells,[4],98%
